Experiment [1] has as its target T1, IRAK1 (His-TEV-IRAK1 (194-712)) (Homo sapiens, UniProt P51617).
T1 construct: His-TEV-IRAK1 (194-712); His (N); TEV cleavage site (N)
Briefly: IRAK1 enzymatic assay. It counts as biochemical. The settings on record: human recombinant His-TEV-IRAK1, ATP 1 μM, 3 hours at 30° C., FlashPlate. The method, then:
IRAK1 Enzymatic Assay IRAK1 is a human purified recombinant enzyme (His-TEV-IRAK1 (194-712)). In this assay, IRAK-1 hydrolyses ATP and autophosphorylates. Measurement of IRAK-1 inhibition was performed in streptavidin coated 384 well FlashPlate (PerkinElmer #SM[…]). His-TEV-IRAK-1 (15 ng/well), ATP (1 μ[…]]ATP 0.25 μCi/well) and compounds in DMSO (range of concentrations from 20 μM to 1 nM) or controls (2% DMSO) were incubated for 3 hours at 30° C. in assay buffer: Hepes pH7.0 50 mM, Fatty acid-free BSA 0.1%, Dithiothreitol DTT 2 mM, MgCl2 10 mM, EGTA 0.5 mM, Triton-X-100 0.01%. Kinase reaction was stopped by addition of EDTA. Supernatant was discarded, plates were washed three times with 150 mM NaCl and radioactivity was then measured in a Microbeta Trilux reader.

For a further experiment, the target named is T2, IRAK4 (His-TEV-IRAK4) (Homo sapiens, UniProt Q9NWZ3).
T2 construct: His (N); TEV cleavage site (N)
T2 sequence (Q9NWZ3 1-460): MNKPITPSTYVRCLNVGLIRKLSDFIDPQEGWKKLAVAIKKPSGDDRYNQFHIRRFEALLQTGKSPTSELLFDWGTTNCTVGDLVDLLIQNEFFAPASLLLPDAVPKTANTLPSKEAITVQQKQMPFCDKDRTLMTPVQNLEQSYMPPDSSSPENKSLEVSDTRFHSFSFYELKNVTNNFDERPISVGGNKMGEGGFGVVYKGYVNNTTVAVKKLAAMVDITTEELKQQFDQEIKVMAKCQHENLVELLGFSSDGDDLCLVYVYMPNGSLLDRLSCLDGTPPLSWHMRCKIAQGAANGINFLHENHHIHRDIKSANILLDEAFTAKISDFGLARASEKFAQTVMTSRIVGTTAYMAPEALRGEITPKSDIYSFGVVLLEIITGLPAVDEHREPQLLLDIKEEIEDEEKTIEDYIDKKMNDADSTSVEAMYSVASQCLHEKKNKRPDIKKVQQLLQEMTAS
Briefly: IRAK4 enzymatic assay. It counts as biochemical. The settings on record: human recombinant His-TEV-IRAK4, ATP 2 μM, STK1-biotin peptide 300 nM, 3 hours at 30° C., FlashPlate. As to the method: IRAK4 Enzymatic Assay IRAK4 is a human purified recombinant enzyme (His-TEV-[…] (194-712). IRAK4 hydrolyses ATP, autophosphorylates and phosphorylates a Serine/Threonine generic peptidic substrate (STK: 61 ST1BLC from CisBio International based in Bagnols/Cèze FR). Measurement of IRAK-4 inhibition was performed in streptavidin coated 384 well FlashPlate (PerkinElmer #SM[…]). His-TEV-IRAK4 (20 ng/well), ATP (2 μM, [^33P]ATP 0.25 μCi/well), STK1-biotin peptide (300 nM) and compounds in DMSO (range of concentrations from 20 μM to 1 nM) or controls (2% DMSO) were incubated for 3 hours at 30° C. in assay buffer: Hepes pH7.0 50 mM, Fatty acid-free BSA 0.1%, Dithiothreitol DTT 2 mM, MgCl2 10 mM, EGTA 0.5 mM, Tween-20 0.01%, MnCl2 5 mM. Kinase reaction was stopped by addition of EDTA. Supernatant was discarded, plates were washed three times with 150 mM NaCl and radioactivity was then measured in a Microbeta Trilux reader.

The structures appear in SMILES notation.

Data on 21 compounds can be found in patent US10314841B2, “Substituted pyrazoles as IRAK inhibitors” (Merck Patent GmbH, priority 2014, dated 2019).

For orientation: IC50 means the concentration at which inhibition is half-maximal.

T1 sequence (P51617 194-712): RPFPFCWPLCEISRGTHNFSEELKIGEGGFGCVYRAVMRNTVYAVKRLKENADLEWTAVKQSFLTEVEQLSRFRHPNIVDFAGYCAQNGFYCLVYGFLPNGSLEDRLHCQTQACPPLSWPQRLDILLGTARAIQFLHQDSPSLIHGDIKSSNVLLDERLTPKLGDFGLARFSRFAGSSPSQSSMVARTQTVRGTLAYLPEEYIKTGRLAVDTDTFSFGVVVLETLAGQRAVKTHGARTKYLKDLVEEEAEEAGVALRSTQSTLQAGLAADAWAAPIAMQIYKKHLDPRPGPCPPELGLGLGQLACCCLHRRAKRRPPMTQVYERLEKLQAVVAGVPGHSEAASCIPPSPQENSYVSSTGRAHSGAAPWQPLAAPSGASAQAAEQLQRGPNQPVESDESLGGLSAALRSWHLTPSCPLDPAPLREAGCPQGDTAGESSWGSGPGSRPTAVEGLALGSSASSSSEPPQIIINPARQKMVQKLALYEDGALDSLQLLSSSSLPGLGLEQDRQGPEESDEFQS

Regarding `CC(=O)N1CCC(n2cc(-c3cnc(-c4cccc(-c5cnn(C)c5)c4)nc3)cn2)C(CO)C1` (mixture of isomers) [Compound 22, 1-[3-Hydroxymethyl-4-(4-{2-[3-(1-methyl-1H-pyrazol-4-yl)-phenyl]-pyrimidin-5-yl}-pyrazol-1-yl)-piperidin-1-yl]-ethanone], the 50% inhibitory concentration (IC50) in experiment [1] was 0.1 to 1 µM; on IRAK4 (His-TEV-IRAK4), < 0.1 µM.

In the case of `Cn1cc(-c2cccc(-c3ncc(-c4cnn([C@H]5CCC[C@H](N6CCOCC6)C5)c4)cn3)c2)cn1` (relative stereo) [Compound 5, 4-[Trans-3-(4-{2-[3-(1-Methyl-1H-pyrazol-4-yl)-phenyl]-pyrimidin-5-yl}-pyrazol-1-yl)-cyclohexyl]-morpholine], the IC50 (in experiment [1]; at IRAK4 (His-TEV-IRAK4)) was 0.1 to 1 µM throughout.

On to `Cn1cc(-c2cccc(-c3ncc(-c4cnn(C5CCCC(O)(CO)C5)c4)cn3)c2)cn1` (centres unmarked) [Compound 1, 1-Hydroxymethyl-3-(4-{2-[3-(1-methyl-1H-pyrazol-4-yl)-phenyl]-pyrimidin-5-yl}-pyrazol-1-yl)-cyclohexanol], for which the IC50 in experiment [1] was 0.1 to 1 µM; at IRAK4 (His-TEV-IRAK4), < 0.1 µM.

As for `Cn1cc(-c2cccc(-c3ncc(-c4cnn(CCNC(=O)OC(C)(C)C)c4)cn3)c2)cn1` [Compound 6, [2-(4-{2-[3-(1-Methyl-1H-pyrazol-4-yl)-phenyl]-pyrimidin-5-yl}-pyrazol-1-yl)-ethyl]-carbamic acid tert-butyl ester], the concentration for half-maximal inhibition (IC50) (in experiment [1]; on IRAK4 (His-TEV-IRAK4)) was 0.1 to 1 µM throughout.

Regarding `Cn1cc(-c2cccc(-c3ncc(-c4cnn(C5CCCN(C(=O)OC(C)(C)C)C5)c4)cn3)c2)cn1` (centres unmarked) [Compound 7, 3-(4-{2-[3-(1-Methyl-1H-pyrazol-4-yl)-phenyl]-pyrimidin-5-yl}-pyrazol-1-yl)-piperidine-1-carboxylic acid tert-butyl ester], the IC50 (in experiment [1]; on IRAK4 (His-TEV-IRAK4)) was 0.1 to 1 µM throughout.

Turning to `Cn1cc(-c2cccc(-c3ncc(-c4cnn(C5CCN(C(=O)OC(C)(C)C)CC5)c4)cn3)c2)cn1` [Compound 8, 4-(4-{2-[3-(1-Methyl-1H-pyrazol-4-yl)-phenyl]-pyrimidin-5-yl}-pyrazol-1-yl)-piperidine-1-carboxylic acid tert-butyl ester], the half-inhibitory concentration (IC50) (in experiment [1]; at IRAK4 (His-TEV-IRAK4)) was 0.1 to 1 µM each time.

As to `C=CC(=O)NCCn1cc(-c2cnc(-c3cccc(-c4cnn(C)c4)c3)nc2)cn1` [Compound 13, N-[2-(4-{2-[3-(1-Methyl-1H-pyrazol-4-yl)-phenyl]-pyrimidin-5-yl}-pyrazol-1-yl)-ethyl]-acrylamide], the IC50 (in experiment [1]; at IRAK4 (His-TEV-IRAK4)) was 0.1 to 1 µM in each case.

For the compound `C=CS(=O)(=O)NCCn1cc(-c2cnc(-c3cccc(-c4cnn(C)c4)c3)nc2)cn1` [Compound 16, Ethenesulfonic acid [2-(4-{2-[3-(1-methyl-1H-pyrazol-4-yl)-phenyl]-pyrimidin-5-yl}-pyrazol-1-yl)-ethyl]-amide], the IC50 (in experiment [1]; at IRAK4 (His-TEV-IRAK4)) was 0.1 to 1 µM in each case.

Regarding `Cn1cc(-c2cccc(-c3ncc(-c4cnn([C@H]5C[C@@H]6CC[C@@H](N6)C5F)c4)cn3)c2)cn1` (some centres unmarked) [Compound 19, 2-Fluoro-3-(4-{2-[3-(1-methyl-1H-pyrazol-4-yl)-phenyl]-pyrimidin-5-yl}-pyrazol-1-yl)-8-aza-bicyclo[3.2.1]octane], the IC50 (in experiment [1]; on IRAK4 (His-TEV-IRAK4)) was < 0.1 µM in each case.

For `CN1[C@H]2CC[C@@H]1C(F)[C@@H](n1cc(-c3cnc(-c4cccc(-c5cnn(C)c5)c4)nc3)cn1)C2` (some centres unmarked) [Compound 20, 2-Fluoro-8-methyl-3-(4-{2-[3-(1-methyl-1H-pyrazol-4-yl)-phenyl]-pyrimidin-5-yl}-pyrazol-1-yl)-8-aza-bicyclo[3.2.1]octane], the half-maximal inhibitory concentration (IC50) (in experiment [1]; at IRAK4 (His-TEV-IRAK4)) was 0.1 to 1 µM in each case.

Turning to `Cn1cc(-c2cccc(-c3ncc(-c4cnn(C5CCCNC(=O)C5)c4)cn3)c2)cn1` (centres unmarked) [Compound 23, 4-(4-{2-[3-(1-Methyl-1H-pyrazol-4-yl)-phenyl]-pyrimidin-5-yl}-pyrazol-1-yl)-azepan-2-one], the values for the IC50 (in experiment [1]; at IRAK4 (His-TEV-IRAK4)) were 0.1 to 1 µM and < 0.1 µM, respectively.

On to `CN1CCCC(n2cc(-c3cnc(-c4cccc(-c5cnn(C)c5)c4)nc3)cn2)CC1=O` (centres unmarked) [Compound 24, 1-Methyl-4-(4-{2-[3-(1-methyl-1H-pyrazol-4-yl)-phenyl]-pyrimidin-5-yl}-pyrazol-1-yl)-azepan-2-one], for which the IC50 is 0.1 to 1 µM in experiment [1] and < 0.1 µM on IRAK4 (His-TEV-IRAK4).

Regarding `Cn1cc(-c2cccc(-c3ncc(-c4cnn(C5CCCC(N6CCCC(F)(F)C6)C5)c4)cn3)c2)cn1` (centres unmarked) [Compound 25, 5-{1-[3-(3,3-Difluoro-piperidin-1-yl)-cyclohexyl]-1H-pyrazol-4-yl}-2-[3-(1-methyl-1H-pyrazol-4-yl)-phenyl]-pyrimidine], the IC50 in experiment [1] is 0.1 to 1 µM; on IRAK4 (His-TEV-IRAK4), < 0.1 µM.

In the case of `COCC1CNCCC1n1cc(-c2cnc(-c3cccc(-c4cnn(C)c4)c3)nc2)cn1` (centres unmarked) [Compound 29, 5-[1-(3-Methoxymethyl-piperidin-4-yl)-1H-pyrazol-4-yl]-2-[3-(1-methyl-1H-pyrazol-4-yl)-phenyl]-pyrimidine], the concentration for half-maximal inhibition (IC50) in experiment [1] is 1 to 20 µM; on IRAK4 (His-TEV-IRAK4), 0.1 to 1 µM.

Consider `O[C@H]1CC[C@H](n2cc(-c3cnc(-c4cccc(-c5cnn(CCN6CCOCC6)c5)c4)nc3)cn2)CC1` [Compound 30, (1r,4r)-4-[4-(2-{3-[1-(2-Morpholin-4-yl-ethyl)-1H-pyrazol-4-yl]-phenyl}-pyrimidin-5-yl)-pyrazol-1-yl]-cyclohexanol], for which the half-inhibitory concentration (IC50) fell in the range of 1 to 20 µM in experiment [1] and 0.1 to 1 µM on IRAK4 (His-TEV-IRAK4).

On to `Cn1cc(-c2cccc(-c3ncc(-c4cnn([C@H]5CC[C@]6(CCC(=O)N6CCO)CC5)c4)cn3)c2)cn1` [Compound 31, 1-(2-Hydroxy-ethyl)-8-(4-{2-[3-(1-methyl-1H-pyrazol-4-yl)-phenyl]-pyrimidin-5-yl}-pyrazol-1-yl)-1-aza-spiro[4.5]decan-2-one], for which the IC50 in experiment [1] was 0.1 to 1 µM; at IRAK4 (His-TEV-IRAK4), < 0.1 µM.

Regarding `O[C@H]1CC[C@H](n2cc(-c3cnc(-c4cccc(-c5cnn(C6CCNCC6)c5)c4)nc3)cn2)CC1` [Compound 32, 4-(4-{2-[3-(1-Piperidin-4-yl-1H-pyrazol-4-yl)-phenyl]-pyrimidin-5-yl}-pyrazol-1-yl)-cyclohexanol], the concentration for half-maximal inhibition (IC50) was in the range of 1 to 20 µM in experiment [1] and 0.1 to 1 µM on IRAK4 (His-TEV-IRAK4).

Take `CC1COCCC1N1CCC[C@H](n2cc(-c3cnc(-c4cccc(-c5cnn(C)c5)c4)nc3)cn2)C1` (stereo partly drawn) [Compound 39, 2-[3-(1-Methyl-1H-pyrazol-4-yl)-phenyl]-5-{1-[(S)-1-(3-methyl-tetrahydro-pyran-4-yl)-piperidin-3-yl]-1H-pyrazol-4-yl}-pyrimidine]: the IC50 (in experiment [1]; at IRAK4 (His-TEV-IRAK4)) was 0.1 to 1 µM throughout.

Turning to `CC1COCCC1N1CCC[C@@H](n2cc(-c3cnc(-c4cccc(-c5cnn(C)c5)c4)nc3)cn2)C1` (stereo partly drawn) [Compound 40, 2-[3-(1-Methyl-1H-pyrazol-4-yl)-phenyl]-5-{1-[(R)-1-(3-methyl-tetrahydro-pyran-4-yl)-piperidin-3-yl]-1H-pyrazol-4-yl}-pyrimidine], the IC50 (in experiment [1]; at IRAK4 (His-TEV-IRAK4)) was 0.1 to 1 µM throughout.

On to `Cn1cc(-c2cccc(-c3ncc(-c4cnn(C5CCC(C(=O)O)C5)c4)cn3)c2)cn1` (centres unmarked) [Compound 42, 3-(4-{2-[3-(1-Methyl-1H-pyrazol-4-yl)-phenyl]-pyrimidin-5-yl}-pyrazol-1-yl)-cyclopentanecarboxylic acid], for which the IC50 was in the range of 1 to 20 µM in experiment [1] and 0.1 to 1 µM at IRAK4 (His-TEV-IRAK4).

`Cn1ccc(-c2cccc(-c3ncc(-c4cnn([C@H]5CC[C@]6(CCC(=O)N6C)CC5)c4)cn3)c2)n1` [Compound 44, 1-Methyl-8-(4-{2-[3-(1-methyl-1H-pyrazol-3-yl)-phenyl]-pyrimidin-5-yl}-pyrazol-1-yl)-1-aza-spiro[4.5]decan-2-one]: on IRAK4 (His-TEV-IRAK4), the IC50 was < 0.1 µM.
